The values below come from DBAASP.

Values after ≈ are worked out from the molar mass of the structure shown. Where only a bound is given, the exact number is not on record here.

Test systems include Leuconostoc lactis; Escherichia coli; Streptococcus uberis; Micrococcus luteus; Listeria innocua; Staphylococcus aureus; Pasteurella multocida; Bacillus cereus; Escherichia coli JM109.
What all share (assay): ≥ marks a high value that may be exact or a test limit, other limits are often not marked, values filed in µg/mL are converted to µM
Assay [1] relates to Staphylococcus epidermidis.
Assay [2] relates to Staphylococcus aureus ATCC 25923.
Assay [3] deals with Candida albicans ATCC 2002.
Assay [4] has as its system Escherichia coli ATCC 25922.
In assay [5] the test system is Pseudomonas aeruginosa CMCCB 10104.
Assay [6] deals with Staphylococcus aureus ATCC 6538P.

As a reminder, the MIC is the least concentration at which growth counts as inhibited. Low readings indicate a more susceptible organism, high ones a less susceptible organism. For the molecule `CC[C@H](C)[C@H](NC(=O)[C@@H](NC(=O)[C@@H]1CCCN1C(=O)[C@@H](NC(=O)[C@@H](NC(=O)[C@H](Cc1cnc[nH]1)NC(=O)[C@@H]1CCCN1C(=O)[C@H](CC(C)C)NC(=O)[C@@H](NC(=O)[C@H](Cc1cnc[nH]1)NC(=O)[C@H](CCCCN)NC(=O)[C@H](C)NC(=O)[C@@H](NC(=O)[C@H](CO)NC(=O)CNC(=O)[C@H](CC(C)C)NC(=O)[C@@H](NC(=O)[C@H](CO)NC(=O)[C@H](CC(C)C)NC(=O)[C@H](CC(C)C)NC(=O)CN)C(C)C)C(C)C)C(C)C)C(C)C)C(C)C)C(C)C)C(=O)N[C@@H](C)C(=O)N[C@@H](CCC(=O)O)C(=O)N[C@@H](CCCCN)C(=O)N[C@@H](CC(C)C)C(N)=O` [GLLSVLGSVAKHVLPHVVPVIAEKL], the MIC is 2.33 µM (≈ 6 µg/mL) in the assay on Leuconostoc lactis; greater than 38.8 µM in the assay on Escherichia coli; 19.4 µM (≈ 50 µg/mL) in the assay on Streptococcus uberis; no less than 38.8 µM in [1]; 9.7 µM (≈ 25 µg/mL) with Micrococcus luteus; 19.4 µM (≈ 50 µg/mL) in the assay with Listeria innocua. Besides, the MIC against Staphylococcus aureus was greater than 38.8 µM; against Pasteurella multocida, no less than 38.8 µM; against Bacillus cereus, no less than 38.8 µM.

Take `CC[C@H](C)[C@H](NC(=O)CNC(=O)[C@H](CO)NC(=O)[C@@H](NC(=O)[C@H](CC(C)C)NC(=O)[C@H](CCC(=O)O)NC(=O)[C@H](CO)NC(=O)[C@H](C)NC(=O)[C@H](CCCCN)NC(=O)[C@H](CCC(=O)O)NC(=O)[C@H](CCCCN)NC(=O)[C@@H](NC(=O)[C@H](CCCCN)NC(=O)[C@H](CCC(=O)O)NC(=O)[C@H](Cc1c[nH]c2ccccc12)NC(=O)[C@H](CC(C)C)NC(=O)CN)[C@@H](C)CC)C(C)C)C(=O)N[C@H](C(=O)N[C@@H](CCC(=O)O)C(=O)NCC(=O)N[C@H](C(=O)N[C@@H](CCCCN)C(=O)O)C(C)C)C(C)C` [GLWEKIKEKASELVSGIVEGVK]: the MIC was no less than 41.7 µM against Leuconostoc lactis; greater than 41.7 µM in the assay on Escherichia coli; no less than 41.7 µM in the assay on Streptococcus uberis; no less than 41.7 µM in assay [1]; 1.25 µM (≈ 3 µg/mL) against Micrococcus luteus; no less than 41.7 µM with Listeria innocua. For the same molecule, the MIC was greater than 41.7 µM in the assay with Staphylococcus aureus, no less than 41.7 µM against Pasteurella multocida and no less than 41.7 µM in the assay on Bacillus cereus.

In the case of `CC[C@H](C)[C@H](NC(=O)[C@H](CC(C)C)NC(=O)[C@H](CCC(N)=O)NC(=O)[C@@H](NC(=O)[C@H](C)NC(=O)CNC(=O)[C@H](CCCCN)NC(=O)[C@H](CC(C)C)NC(=O)[C@H](CC(C)C)NC(=O)[C@@H](NC(=O)[C@H](Cc1ccccc1)NC(=O)[C@@H](NC(=O)CN)C(C)C)[C@@H](C)O)[C@@H](C)O)C(=O)NCC(=O)N[C@@H](CCCCN)C(=O)N[C@H](C(=O)N[C@@H](CC(C)C)C(=O)NCC(=O)N[C@@H](CCCCN)C(=O)N[C@@H](CCC(=O)O)C(=O)N[C@@H](CC(C)C)C(=O)NCC(=O)N[C@@H](CCCCN)C(=O)N[C@H](C(=O)NCC(=O)N[C@@H](CC(C)C)C(=O)N[C@@H](CCC(=O)O)C(=O)N[C@@H](CC(C)C)C(=O)N[C@@H](CCSC)C(=O)N[C@@H](C)C(=O)N[C@H]1CSSC[C@@H](C(=O)O)NC(=O)[C@H](CCC(N)=O)NC(=O)[C@H](CC(N)=O)NC(=O)[C@H]([C@@H](C)O)NC(=O)[C@H]([C@@H](C)CC)NC(=O)[C@H](CCCCN)NC1=O)[C@@H](C)O)[C@@H](C)O` [GVFTLLKGATQLIGKTLGKELGKTGLELMACKITNQC], the MIC in [2] was 2.04 µM (≈ 7.9 µg/mL); in assay [3], 4.07 µM (≈ 15.8 µg/mL); in assay [4], 2.04 µM (≈ 7.9 µg/mL); in assay [5], 2.04 µM (≈ 7.9 µg/mL).

As for `CC[C@H](C)[C@H](NC(=O)[C@H](C)NC(=O)[C@H](CC(C)C)NC(=O)[C@H](CS)NC(=O)[C@@H](N)Cc1cnc[nH]1)C(=O)NCC(=O)N[C@@H](CCCN=C(N)N)C(=O)N[C@@H](CCCN=C(N)N)C(N)=O` [HCLAIGRR], the MIC in assay [6] is 9.73 µM; in the assay with Escherichia coli JM109, 25.9 µM; against Staphylococcus aureus, greater than 69.2 µM.

For the molecule `CC[C@H](C)[C@H](NC(=O)[C@H](CC(C)C)NC(=O)[C@H](CCCCN)NC(=O)[C@H](C)NC(=O)[C@H](C)NC(=O)CNC(=O)[C@H](CCCCN)NC(=O)[C@@H](NC(=O)[C@H](CC(C)C)NC(=O)[C@@H](NC(=O)[C@H](Cc1ccccc1)NC(=O)[C@H](CC(C)C)NC(=O)CN)[C@@H](C)O)[C@@H](C)CC)C(=O)NCC(=O)N[C@@H](CCCCN)C(=O)N[C@H](C(=O)N[C@H](C(=O)N[C@@H](C)C(=O)N[C@@H](CCCCN)C(=O)N[C@@H](CCC(=O)O)C(=O)N[C@@H](C)C(=O)NCC(=O)N[C@@H](CCCCN)C(=O)N[C@H](C(=O)NCC(=O)N[C@@H](CCCCN)C(=O)N[C@@H](CC(C)C)C(=O)N[C@@H](CCC(=O)O)C(=O)N[C@@H](CCSC)C(=O)N[C@@H](C)C(=O)N[C@H]1CSSC[C@@H](C(=O)O)NC(=O)[C@H](CCC(N)=O)NC(=O)[C@H](CC(N)=O)NC(=O)[C@H]([C@@H](C)O)NC(=O)[C@H]([C@@H](C)CC)NC(=O)[C@H](CCCCN)NC1=O)[C@@H](C)O)[C@@H](C)O)[C@@H](C)O` [GLFTLIKGAAKLIGKTTAKEAGKTGKLEMACKITNQC], the MIC in assay [2] was found to be 0.573 µM (≈ 2.2 µg/mL); in assay [3], 1.15 µM (≈ 4.4 µg/mL); in [4] it was 1.15 µM (≈ 4.4 µg/mL); in assay [5], 0.573 µM (≈ 2.2 µg/mL).

Consider `CC[C@H](C)[C@H](N)C(=O)N[C@@H](CC(C)C)C(=O)N1CCC[C@H]1C(=O)N[C@@H](Cc1ccccc1)C(=O)N[C@H](C(=O)N[C@@H](C)C(=O)NCC(=O)N[C@H](C(=O)N[C@@H](C)C(=O)N[C@@H](C)C(=O)N[C@@H](CCC(=O)O)C(=O)N[C@@H](CCSC)C(=O)N[C@@H](CCSC)C(=O)N[C@@H](CCC(=O)O)C(=O)N[C@@H](Cc1cnc[nH]1)C(=O)N[C@H](C(=O)N[C@@H](Cc1ccc(O)cc1)C(=O)N[C@H]1CSSC[C@@H](C(=O)O)NC(=O)[C@H](CCCCN)NC(=O)[C@H](CCCCN)NC(=O)[C@H](CO)NC(=O)[C@H](C)NC(=O)[C@H](C)NC1=O)C(C)C)C(C)C)C(C)C` [ILPFVAGVAAEMMEHVYCAASKKC], for which the MIC in assay [2] amounted to 10.2 µM (≈ 26.2 µg/mL); in assay [3] it was 5.1 µM (≈ 13.1 µg/mL); in assay [4] it was 5.1 µM (≈ 13.1 µg/mL); in assay [5], 20.4 µM (≈ 52.4 µg/mL).

The molecule `CC[C@H](C)[C@H](N)C(=O)N[C@@H](CC(C)C)C(=O)N1CCC[C@H]1C(=O)N[C@@H](Cc1c[nH]c2ccccc12)C(=O)N[C@@H](CCCCN)C(=O)N[C@@H](Cc1c[nH]c2ccccc12)C(=O)N1CCC[C@H]1C(=O)N[C@@H](Cc1ccccc1)C(=O)N[C@@H](Cc1ccccc1)C(=O)N1CCC[C@H]1C(=O)N[C@@H](Cc1c[nH]c2ccccc12)C(=O)N[C@@H](CCCN=C(N)N)C(=O)N[C@@H](CCCN=C(N)N)C(N)=O` [ILPWKWPFFPWRR] showed an MIC in the assay on Escherichia coli JM109 of 2 µM (≈ 3.66 µg/mL).

Regarding `CC[C@H](C)[C@H](NC(=O)[C@@H](NC(=O)[C@H](CO)NC(=O)[C@H](C)NC(=O)[C@@H](NC(=O)[C@H](CCCCN)NC(=O)[C@H](CCCCN)NC(=O)[C@@H](NC(=O)[C@@H](NC(=O)[C@H](CCCCN)NC(=O)[C@H](Cc1ccccc1)NC(=O)[C@H](CC(C)C)NC(=O)CN)C(C)C)[C@@H](C)CC)C(C)C)C(C)C)C(=O)NCC(=O)NCC(=O)N[C@@H](CC(C)C)C(N)=O` [GLFKVIKKVASVIGGL], the MIC in the assay on Leuconostoc lactis is 3.68 µM (≈ 6 µg/mL); against Escherichia coli it was greater than 61.4 µM; in the assay on Streptococcus uberis, 30.7 µM (≈ 50 µg/mL); in assay [1], 7.37 µM (≈ 12 µg/mL); against Micrococcus luteus, 7.37 µM (≈ 12 µg/mL); with Listeria innocua, no less than 61.4 µM. Moreover, the MIC was 15.3 µM (≈ 25 µg/mL) against Staphylococcus aureus, no less than 61.4 µM in the assay on Pasteurella multocida and 30.7 µM (≈ 50 µg/mL) in the assay on Bacillus cereus.

As to `CC[C@H](C)[C@H](NC(=O)[C@H](Cc1ccccc1)NC(=O)[C@@H](N)CCCN=C(N)N)C(=O)N[C@@H](Cc1ccc(O)cc1)C(=O)N[C@@H](CCSC)C(=O)N[C@@H](CCCCN)C(=O)NCC(=O)N[C@@H](Cc1ccccc1)C(=O)NCC(=O)N[C@@H](CCCCN)C(=O)N1CCC[C@H]1C(=O)N[C@@H](CCCN=C(N)N)C(=O)N[C@@H](Cc1ccccc1)C(=O)NCC(=O)N[C@@H](CCCCN)C(=O)N[C@@H](CCCN=C(N)N)C(=O)O` [RFIYMKGFGKPRFGKR], the MIC turned out to be 12.6 µM (≈ 25 µg/mL) in assay [2], 25.1 µM (≈ 50 µg/mL) in [3], 50.3 µM (≈ 100 µg/mL) in assay [4] and 12.6 µM (≈ 25 µg/mL) in assay [5].

Take `CC[C@H](C)[C@H](N)C(=O)N[C@@H](CC(C)C)C(=O)N1CCC[C@H]1C(=O)N[C@@H](Cc1ccccc1)C(=O)N[C@H](C(=O)N[C@@H](C)C(=O)NCC(=O)N[C@H](C(=O)N[C@@H](C)C(=O)N[C@@H](C)C(=O)N[C@@H](CCSC)C(=O)N[C@@H](CCC(=O)O)C(=O)N[C@@H](CCSC)C(=O)N[C@@H](CCC(=O)O)C(=O)N[C@@H](Cc1cnc[nH]1)C(=O)N[C@H](C(=O)N[C@@H](Cc1ccc(O)cc1)C(=O)N[C@H]1CSSC[C@@H](C(=O)O)NC(=O)[C@H](CCCCN)NC(=O)[C@H](CCCCN)NC(=O)[C@H](CO)NC(=O)[C@H](C)NC(=O)[C@H](C)NC1=O)C(C)C)C(C)C)C(C)C` [ILPFVAGVAAMEMEHVYCAASKKC]: the MIC in assay [2] is 1.91 µM (≈ 4.9 µg/mL); in [3], 3.81 µM (≈ 9.79 µg/mL); in assay [4], 3.81 µM (≈ 9.79 µg/mL); in assay [5], 3.81 µM (≈ 9.79 µg/mL).
